{"source": "patent US7151105B2", "about": "“Inhibitors of Hepatitis C virus RNA-dependent RNA polymerase, and compositions and treatments using the same” (Agouron Pharmaceuticals, Inc., priority 2004, dated 2006)", "target": "T1, Recombinant HCV polymerase (Hepatitis C virus genotype 1b, UniProt P26663)", "T1 construct": "Recombinant HCV polymerase was tested for its ability to perform primer/template-directed transcription", "T1 sequence (P26663 2420-3010)": "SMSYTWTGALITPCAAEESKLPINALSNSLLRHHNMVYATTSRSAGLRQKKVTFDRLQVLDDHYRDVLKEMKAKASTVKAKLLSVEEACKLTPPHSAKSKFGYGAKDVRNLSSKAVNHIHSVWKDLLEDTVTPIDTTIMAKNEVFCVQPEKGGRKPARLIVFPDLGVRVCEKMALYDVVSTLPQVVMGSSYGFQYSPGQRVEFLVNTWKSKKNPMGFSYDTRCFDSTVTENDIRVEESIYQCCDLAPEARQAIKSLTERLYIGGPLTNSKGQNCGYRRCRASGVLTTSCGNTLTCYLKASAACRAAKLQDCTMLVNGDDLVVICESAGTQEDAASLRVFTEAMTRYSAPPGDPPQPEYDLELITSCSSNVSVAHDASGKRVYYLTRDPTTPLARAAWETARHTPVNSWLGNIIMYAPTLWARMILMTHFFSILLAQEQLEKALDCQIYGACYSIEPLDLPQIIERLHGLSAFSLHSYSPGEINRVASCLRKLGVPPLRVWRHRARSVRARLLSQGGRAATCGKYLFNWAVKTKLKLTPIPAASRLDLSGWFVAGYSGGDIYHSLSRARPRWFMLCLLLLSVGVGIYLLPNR", "experiment": "biochemical", "settings": "inhibition of polymerase-directed transcription; 30 min at 30° C; 30 nM enzyme; cpm data in triplicate", "outline": "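Primer/template-directed RNA synthesis by 2.5 pmol HCV polymerase on poly(rC)300/biotin-dG12 with 1 μM GTP plus α-32P-GTP, in pH 7.2 Tris buffer with 10 mM MgCl2, for 30 min at 30 °C. Products were filter-captured and counted, with 1% DMSO final. IC50 was fitted from triplicate cpm; percent inhibition was reported where IC50 was impractical.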", "data": [{"smiles": "CCc1cc(CCC2(C3CCCC3)CC(O)=C(Cc3nc4ncc(C)cn4n3)C(=O)O2)ccc1NS(C)(=O)=O", "note": "(stereo not drawn) [A(106), N-[4-(2-{2-cyclopentyl-4-hydroxy-5-[(6-methyl[1,2,4]triazolo[1,5-a]pyrimidin-2-yl)methyl]-6-oxo-3,6-dihydro-2H-pyran-2-yl}ethyl)-2-ethylphenyl]methanesulfonamide]", "values": [{"measurement": "IC50", "value": 4, "unit": "nM"}]}, {"smiles": "CCCOc1cc(O)c(CC(F)(F)F)cc1CCC1(C2CCCC2)CC(O)=C(Cc2nc3nc(C)cc(C)n3n2)C(=O)O1", "note": "(stereo not drawn) [A(77), 6-Cyclopentyl-3-[(5,7-dimethyl[1,2,4]triazolo[1,5-a]pyrimidin-2-yl)methyl]-4-hydroxy-6-{2-[4-hydroxy-2-propoxy-5-(2,2,2-trifluoroethyl)phenyl]ethyl}-5,6-dihydro-2H-pyran-2-one]", "values": [{"measurement": "IC50", "value": 5, "unit": "nM"}]}, {"smiles": "Cc1cc(C)n2nc(CC3=C(O)CC(CCc4ccc(C(C)(C)NS(C)(=O)=O)c(F)c4)(C4CCCC4)OC3=O)nc2n1", "note": "(stereo not drawn) [A(29), N-{1-[4-(2-{2-cyclopentyl-5-[(5,7-dimethyl[1,2,4]triazolo[1,5-a]pyrimidin-2-yl)methyl]-4-hydroxy-6-oxo-3,6-dihydro-2H-pyran-2-yl}ethyl)-2-fluorophenyl]-1-methylethyl}methanesulfonamide]", "values": [{"measurement": "IC50", "value": 17, "unit": "nM"}]}, {"smiles": "Cc1cc(C)n2nc(CC3=C(O)CC(CCc4cc(C)c(O)c(CC(F)(F)F)c4)(C4CCCC4)OC3=O)nc2n1", "note": "(stereo not drawn) [A(76), 6-Cyclopentyl-3-[(5,7-dimethyl[1,2,4]triazolo[1,5-a]pyrimidin-2-yl)methyl]-4-hydroxy-6-{2-[4-hydroxy-3-methyl-5-(2,2,2-trifluoroethyl)phenyl]ethyl}-5,6-dihydro-2H-pyran-2-one]", "values": [{"measurement": "IC50", "value": 5, "unit": "nM"}]}, {"smiles": "Cc1nc(CC2=C(O)CC(CCc3ccc(C(C)(C)C#N)c(Cl)c3)(C3CCCC3)OC2=O)n(C)n1", "note": "(stereo not drawn) [B(22), 2-[2-Chloro-4-(2-{2-cyclopentyl-5-[(1,3-dimethyl-1H-1,2,4-triazol-5-yl)methyl]-4-hydroxy-6-oxo-3,6-dihydro-2H-pyran-2-yl}ethyl)phenyl]-2-methylpropanenitrile]", "values": [{"measurement": "IC50", "value": 42, "unit": "nM"}]}, {"smiles": "CCc1cc(CCC2(C3CCCC3)CC(O)=C(Cc3nc4nc(C)cc(C)n4n3)C(=O)O2)ccn1", "note": "(single isomer, unassigned) [A(45), 6-Cyclopentyl-3-[(5,7-dimethyl[1,2,4]triazolo[1,5-a]pyrimidin-2-yl)methyl]-6-[2-(2-ethylpyridin-4-yl)ethyl]-4-hydroxy-5,6-dihydro-2H-pyran-2-one]", "values": [{"measurement": "IC50", "value": 14, "unit": "nM"}]}, {"smiles": "CCc1cc(CCC2(C3CCCC3)CC(O)=C(Cc3nc4nc(C)cc(C)n4n3)C(=O)O2)ccc1CN1CCOCC1", "note": "(single isomer, unassigned) [A(157), 6-Cyclopentyl-3-[(5,7-dimethyl[1,2,4]triazolo[1,5-a]pyrimidin-2-yl)methyl]-{2-[3-ethyl-4-(morpholin-4-ylmethyl)phenyl]ethyl}-4-hydroxy-5,6-dihydro-2H-pyran-2-one]", "values": [{"measurement": "IC50", "value": 10, "unit": "nM"}]}, {"smiles": "CC(C)(O)c1ccc(CCC2(C3CCCC3)CC(O)=C(Cc3nc4ncc(Cl)cn4n3)C(=O)O2)cc1Cl", "note": "(stereo not drawn) [B(38), 6-{2-[3-Chloro-4-(1-hydroxy-1-methylethyl)phenyl]ethyl}-3-[(6-chloro[1,2,4]triazolo[1,5-a]pyrimidin-2-yl)methyl]-6-cyclopentyl-4-hydroxy-5,6-dihydro-2H-pyran-2-one]", "values": [{"measurement": "IC50", "value": 67, "unit": "nM"}]}, {"smiles": "CCc1cc(CCC2(C3CCCC3)CC(O)=C(Cc3nc4nc(C)cc(C)n4n3)C(=O)O2)ccc1OCCN(C)C(=O)OC(C)(C)C", "note": "(stereo not drawn) [A(69), tert-Butyl 2-[4-(2-{2-cyclopentyl-5-[(5,7-dimethyl[1,2,4]triazolo[1,5-a]pyrimidin-2-yl)methyl]-4-hydroxy-6-oxo-3,6-dihydro-2H-pyran-2-yl}ethyl)2-ethylphenoxy]ethyl(methyl)carbamate]", "values": [{"measurement": "IC50", "value": 15, "unit": "nM"}]}, {"smiles": "Cc1cc(C)n2nc(CC3=C(O)CC(CCc4ccc(S(=O)(=O)C(F)(F)F)cc4)(C4CCCC4)OC3=O)nc2n1", "note": "(stereo not drawn) [A(65)]", "values": [{"measurement": "IC50", "value": 250, "unit": "nM"}]}, {"smiles": "CCc1ccc(OC)c(CCC2(C3CCCC3)CC(O)=C(Cc3nc4nc(C)cc(C)n4n3)C(=O)O2)n1", "note": "(stereo not drawn) [A(6), 6-Cyclopentyl-3-[(5,7-dimethyl[1,2,4]triazolo[1,5-a]pyrimidin-2-yl)methyl]6-[2-(6-ethyl-3-methoxypyridin-2-yl)ethyl]4-hydroxy-5,6-dihydro-2H-pyran-2-one]", "values": [{"measurement": "IC50", "value": 39, "unit": "nM"}]}, {"smiles": "O=C1CC(=O)OC(CCc2ccc(C(=O)O)c(F)c2)(C2CCCC2)C1", "note": "(stereo not drawn) [B(6), 4-[2-(2-Cyclopentyl-4,6-dioxotetrahydro-2H-pyran-2-yl)ethyl]-2-fluorobenzoic acid]", "values": [{"measurement": "IC50", "value": 12000, "unit": "nM"}]}, {"smiles": "Cn1cc(CC2=C(O)CC(CCc3ccc(C(C)(C)C#N)c(F)c3)(C3CCCC3)OC2=O)cn1", "note": "(stereo not drawn) [A(86), 2-[4(2-{2-Cyclopentyl-hydroxy-5[(1-methyl-1H-pyrazol-4-yl)methyl]-6-oxo-3,6-dihydro-2H-pyran-2-yl}ethyl)-2-fluorophenyl]-2-methylpropanenitrile]", "values": [{"measurement": "IC50", "value": 86, "unit": "nM"}]}, {"smiles": "CCc1cc(CCC2(C3CCCC3)CC(O)=C(Cc3nc4nc(C)cc(C)n4n3)C(=O)O2)ccc1C(=O)OC", "note": "(stereo not drawn) [A(118), Methyl 4-(2-{2-cyclopentyl-5-[(5,7-dimethyl[1,2,4]triazolo[1,5a]pyrimidin-2-yl)methyl]-4-hydroxy-6oxo-3,6-dihydro-2H-pyran-2-yl}ethyl)-2-ethylbenzoate]", "values": [{"measurement": "IC50", "value": 7, "unit": "nM"}]}, {"smiles": "CCn1cc(CC2=C(O)CC(CCc3ccc(C(C)(C)C#N)c(F)c3)(C3CCCC3)OC2=O)cn1", "note": "(stereo not drawn) [A(85), 2-[4-(2-{2-Cyclopentyl-5-[(1-ethyl-1H-pyrazol-4-yl)methyl]-4-hydroxy-6-oxo-3,6-dihydro-2H-pyran-2-yl}ethyl)-2-fluorophenyl]-2-methylpropanenitrile]", "values": [{"measurement": "IC50", "value": 83, "unit": "nM"}]}, {"smiles": "CCc1cc(CCC2(C3CCCC3)CC(O)=C(Cc3nc4nc(C)cc(C)n4n3)C(=O)O2)ccc1NS(=O)(=O)CC", "note": "(stereo not drawn) [A(108), N-[4-(2-{2-cyclopentyl-5-[(5,7-dimethyl[1,2,4]triazolo[1,5-a]pyrimidin-2-yl)methyl]-4-hydroxy-6-oxo-3,6-dihydro-2H-pyran-2-yl}ethyl)-2-ethylphenyl]ethanesulfonamide]", "values": [{"measurement": "IC50", "value": 6, "unit": "nM"}]}, {"smiles": "CCOc1cnc(CC)cc1CCC1(C2CCCC2)CC(O)=C(Cc2nc3ncc(C)cn3n2)C(=O)O1", "note": "(single isomer, unassigned) [A(55), 6-Cyclopentyl-6-[2-(5-ethoxy-2-ethylpyridin-4-yl)ethyl]-4-hydroxy-3-[(6-methyl[1,2,4]triazolo[1,5-a]pyrimidin-2-yl)methyl]-5,6-dihydro-2H-pyran-2-one]", "values": [{"measurement": "IC50", "value": 2, "unit": "nM"}]}, {"smiles": "CCOc1cnc(CC)cc1CCC1(C2CCCC2)CC(O)=C(Cc2nc3nc(C)cc(C)n3n2)C(=O)O1", "note": "(stereo not drawn) [A(27), 6-Cyclopentyl-3-[(5,7-dimethyl[1,2,4]triazolo[1,5-a]pyrimidin-2-yl)methyl]-6-[2-(5-ethoxy-2-ethylpyridin-4-yl)ethyl]-4-hydroxy-5,6-dihydro-2H-pyran-2-one]", "values": [{"measurement": "IC50", "value": 3, "unit": "nM"}]}, {"smiles": "CCc1cc(CCC2(C3CCCC3)CC(O)=C(Cc3nc4nc(C)cc(C)n4n3)C(=O)O2)ccc1COC", "note": "(stereo not drawn) [A(120), 6-Cyclopentyl-3-[(5,7-dimethyl[1,2,4]triazolo[1,5-a]pyrimidin-2-yl)methyl]-6-{2-[3ethyl-4-(methoxymethyl)phenyl]ethyl}-4-hydroxy-5,6dihydro-2H-pyran-2-one]", "values": [{"measurement": "IC50", "value": 7, "unit": "nM"}]}, {"smiles": "CC(C)(C#N)c1ccc(CCC2(C3CCCC3)CC(O)=C(Cc3cn4nccnc4n3)C(=O)O2)cc1Cl", "note": "(stereo not drawn) [B(14), 2-(2-Chloro-4-{2-[2-cyclopentyl-4-hydroxy-5-(imidazo[1,2-b][1,2,4]triazin-6-ylmethyl)-6-oxo-3,6-dihydro-2H-pyran-2-yl]ethyl}phenyl)-2-methylpropanenitrile]", "values": [{"measurement": "IC50", "value": 26, "unit": "nM"}]}, {"smiles": "Cc1cc(C)n2nc(OC3C(=O)CC(CCc4ccc(C(C)(C)C#N)c(Cl)c4)(C4CCCC4)OC3=O)nc2n1", "note": "(stereo not drawn) [B(27), 2-[2-Chloro-4-(2-{2-cyclopentyl-5-[(5,7-dimethyl[1,2,4]triazolo[1,5-a]pyrimidin-2-yl)oxy]-4,6-dioxotetrahydro-2H-pyran-2-yl}ethyl)phenyl]-2-methylpropanenitrile]", "values": [{"measurement": "IC50", "value": 10000, "unit": "nM"}]}, {"smiles": "CCn1nc(C)c(CC2=C(O)CC(CCc3cc(Cl)c(OC)cc3OC)(C3CCCC3)OC2=O)c1C", "note": "(stereo not drawn) [B(18), 6-[2-(5-Chloro-2,4-dimethoxyphenyl)ethyl]-6-cyclopentyl-3-[(1-ethyl-3,5-dimethyl-1H-pyrazol-4-yl)methyl]-4-hydroxy-5,6-dihydro-2H-pyran-2-one]", "values": [{"measurement": "IC50", "value": 170, "unit": "nM"}]}, {"smiles": "CCc1cc(CCC2(C3CCCC3)CC(O)=C(Cc3nc4nc(C)cc(C)n4n3)C(=O)O2)ccc1CC#N", "note": "(single isomer, unassigned; enantiomer 2) [A(117), Enantiomer 2 of [4(2-{2-Cyclopentyl-5[(5,7-dimethyl[1,2,4]triazolo[1,5-a]pyrimidin-2-yl)methyl]-4-hydroxy-6-oxo-3,6dihydro-2H-pyran-2-yl}ethyl)-2-ethylphenyl]acetonitrile]", "values": [{"measurement": "IC50", "value": 5, "unit": "nM"}]}, {"smiles": "CC(=O)NCc1ccc(CCC2(C3CCCC3)CC(O)=C(Cc3nc4nc(C)cc(C)n4n3)C(=O)O2)cc1F", "note": "(stereo not drawn) [A(25), N-[4-(2-{2-Cyclopentyl-5-[(5,7-dimethyl[1,2,4]triazolo[1,5-a]pyrimidin-2-yl)methyl]-4-hydroxy-6-oxo-3,6dihydro-2H-pyran-2-yl}ethyl)-2-fluorobenzyl]acetamide]", "values": [{"measurement": "IC50", "value": 100, "unit": "nM"}]}, {"smiles": "CS(=O)(=O)c1ccc(CCC2(C3CCCC3)CC(=O)CC(=O)O2)cc1F", "note": "(stereo not drawn) [A(63), 6-Cyclopentyl-6-{2-[3-fluoro-4-(methylsulfonyl)phenyl]ethyl}dihydro-2H-pyran-2,4(3H)-dione]", "values": [{"measurement": "IC50", "value": 18500, "unit": "nM"}]}, {"smiles": "Cc1cc(C)n2nc(CC3=C(O)CC(CCc4ccnc(C(C)C)c4)(C4CCCC4)OC3=O)nc2n1", "note": "(stereo not drawn) [A(33), 6Cyclopentyl-3-[(5,7-dimethyl[1,2,4]triazolo[1,5-a]pyrimidin-2-yl)methyl]-4-hydroxy-6-[2-(2-isopropylpyridin-4-yl)ethyl]-5,6-dihydro-2H-pyran-2-one]", "values": [{"measurement": "IC50", "value": 7, "unit": "nM"}]}, {"smiles": "O=C1CC(=O)OC(CCc2ccc(C(=O)O)c(Cl)c2)(C2CCCC2)C1", "note": "(stereo not drawn) [B(10)]", "values": [{"measurement": "IC50", "value": 30000, "unit": "nM"}]}]}
